Assay results published in the NIST ThermoML archive (doi:10.1021/je060271a).
Values joined by “and” are separate entries in the source; they are usually repeats but may differ in a detail not shown here. Identical values can stand only once. Numbers after ± are expanded uncertainties.

Details: Liquid, Vibrating tube method

## CCCCCC(=O)OCC(COC(=O)CCCCC)(COC(=O)CCCCC)COC(=O)CCCCC [pentaerythritol tetrahexanoate]
283.16 K, 9726 kPa
  mass density: 1009.7 ± 1.2 kg/m3
283.16 K, 9740.5 kPa
  mass density: 1009.7 ± 1.2 kg/m3
283.16 K, 11666 kPa
  mass density: 1010.8 ± 1.2 kg/m3
283.16 K, 11699 kPa
  mass density: 1010.9 ± 1.2 kg/m3
283.16 K, 11719 kPa
  mass density: 1011 ± 1.2 kg/m3
283.16 K, 11736 kPa
  mass density: 1010.9 ± 1.2 kg/m3
283.16 K, 11882 kPa
  mass density: 1011 ± 1.2 kg/m3
283.16 K, 15896 kPa
  mass density: 1013.2 ± 1.2 kg/m3
283.16 K, 15917 kPa
  mass density: 1013.2 ± 1.2 kg/m3
283.16 K, 15934 kPa
  mass density: 1013.3 ± 1.2 kg/m3
283.16 K, 15952 kPa
  mass density: 1013.2 ± 1.2 kg/m3
283.16 K, 15973 kPa
  mass density: 1013.2 ± 1.2 kg/m3
283.16 K, 15990 kPa
  mass density: 1013.1 ± 1.2 kg/m3
283.16 K, 16007 kPa
  mass density: 1013.1 ± 1.2 kg/m3
283.16 K, 16028 kPa
  mass density: 1013.2 ± 1.2 kg/m3
283.16 K, 16047 kPa
  mass density: 1013.4 ± 1.2 kg/m3
283.16 K, 17073 kPa
  mass density: 1013.9 ± 1.2 kg/m3
283.16 K, 17091 kPa
  mass density: 1013.8 ± 1.2 kg/m3
283.16 K, 17101 kPa
  mass density: 1013.8 ± 1.2 kg/m3
283.16 K, 17102 kPa
  mass density: 1013.8 ± 1.2 kg/m3
283.16 K, 17103 kPa
  mass density: 1013.9 ± 1.2 kg/m3
283.16 K, 21750 kPa
  mass density: 1016.3 ± 1.2 kg/m3
283.16 K, 24165 kPa
  mass density: 1017.6 ± 1.2 kg/m3
283.16 K, 24256 kPa
  mass density: 1017.8 ± 1.2 kg/m3
283.16 K, 24293 kPa
  mass density: 1017.8 ± 1.2 kg/m3
283.16 K, 24310 kPa
  mass density: 1017.7 ± 1.2 kg/m3
283.16 K, 24348 kPa
  mass density: 1017.7 ± 1.2 kg/m3
283.16 K, 26923 kPa
  mass density: 1019 ± 1.2 kg/m3
283.16 K, 26937 kPa
  mass density: 1019 ± 1.2 kg/m3
303.14 K, 14075 kPa
  mass density: 997.2 ± 1.2 kg/m3
303.14 K, 21030 kPa
  mass density: 1001.2 ± 1.2 kg/m3
303.14 K, 32666 kPa
  mass density: 1007.6 ± 1.2 kg/m3
303.14 K, 32689 kPa
  mass density: 1007.7 ± 1.2 kg/m3
303.14 K, 32708 kPa
  mass density: 1007.8 ± 1.2 kg/m3
303.14 K, 32727 kPa
  mass density: 1007.7 ± 1.2 kg/m3
303.14 K, 32750 kPa
  mass density: 1007.8 ± 1.2 kg/m3
303.14 K, 32770 kPa
  mass density: 1007.7 ± 1.2 kg/m3
303.14 K, 32789 kPa
  mass density: 1007.7 ± 1.2 kg/m3
303.14 K, 34002 kPa
  mass density: 1008.2 ± 1.2 kg/m3
303.14 K, 34004 kPa
  mass density: 1008.4 ± 1.2 kg/m3
303.14 K, 34018 kPa
  mass density: 1008.3 ± 1.2 kg/m3
303.14 K, 34022 kPa
  mass density: 1008.4 ± 1.2 kg/m3
303.14 K, 34024 kPa
  mass density: 1008.4 ± 1.2 kg/m3
303.14 K, 34030 kPa
  mass density: 1008.3 ± 1.2 kg/m3
303.14 K, 34038 kPa
  mass density: 1008.4 ± 1.2 kg/m3
303.14 K, 34043 kPa
  mass density: 1008.4 ± 1.2 kg/m3
303.14 K, 34049 kPa
  mass density: 1008.2 ± 1.2 kg/m3
303.14 K, 34053 kPa
  mass density: 1008.4 ± 1.2 kg/m3
303.14 K, 34057 kPa
  mass density: 1008.5 ± 1.2 kg/m3
303.14 K, 34060 kPa
  mass density: 1008.3 ± 1.2 kg/m3
303.14 K, 34063 kPa
  mass density: 1008.4 ± 1.2 kg/m3
303.14 K, 34084 kPa
  mass density: 1008.5 ± 1.2 kg/m3
303.14 K, 34101 kPa
  mass density: 1008.4 ± 1.2 kg/m3
303.14 K, 34115 kPa
  mass density: 1008.4 ± 1.2 kg/m3
303.14 K, 34131 kPa
  mass density: 1008.4 ± 1.2 kg/m3
303.14 K, 34147 kPa
  mass density: 1008.4 ± 1.2 kg/m3
303.14 K, 34159 kPa
  mass density: 1008.4 ± 1.2 kg/m3
303.14 K, 34165 kPa
  mass density: 1008.6 ± 1.2 kg/m3
303.14 K, 34169 kPa
  mass density: 1008.5 ± 1.2 kg/m3
303.14 K, 34174 kPa
  mass density: 1008.4 ± 1.2 kg/m3
303.15 K, 191.8 kPa
  mass density: 988.6 ± 1.2 kg/m3
303.15 K, 192.2 kPa
  mass density: 988.4 ± 1.2 kg/m3
303.15 K, 192.4 kPa
  mass density: 988.5 ± 1.2 kg/m3
303.15 K, 192.5 kPa
  mass density: 988.3 ± 1.2 kg/m3
303.15 K, 192.7 kPa
  mass density: 988.4 ± 1.2 kg/m3
303.15 K, 193.2 kPa
  mass density: 988.5 ± 1.2 kg/m3
303.15 K, 193.4 kPa
  mass density: 988.5 ± 1.2 kg/m3 and 988.4 ± 1.2 kg/m3
303.15 K, 193.6 kPa
  mass density: 988.6 ± 1.2 kg/m3
303.15 K, 193.9 kPa
  mass density: 988.5 ± 1.2 kg/m3
303.15 K, 194.8 kPa
  mass density: 988.4 ± 1.2 kg/m3 and 988.5 ± 1.2 kg/m3
303.15 K, 195 kPa
  mass density: 988.5 ± 1.2 kg/m3
303.15 K, 195.1 kPa
  mass density: 988.5 ± 1.2 kg/m3
303.15 K, 195.8 kPa
  mass density: 988.6 ± 1.2 kg/m3 and 988.4 ± 1.2 kg/m3
303.15 K, 196 kPa
  mass density: 988.5 ± 1.2 kg/m3
303.15 K, 196.2 kPa
  mass density: 988.3 ± 1.2 kg/m3
303.15 K, 196.3 kPa
  mass density: 988.5 ± 1.2 kg/m3
303.15 K, 196.5 kPa
  mass density: 988.5 ± 1.2 kg/m3 and 988.6 ± 1.2 kg/m3
303.15 K, 198.2 kPa
  mass density: 988.4 ± 1.2 kg/m3 and 988.5 ± 1.2 kg/m3
303.15 K, 198.4 kPa
  mass density: 988.4 ± 1.2 kg/m3
303.15 K, 198.8 kPa
  mass density: 988.4 ± 1.2 kg/m3 and 988.5 ± 1.2 kg/m3
303.15 K, 198.9 kPa
  mass density: 988.5 ± 1.2 kg/m3
303.15 K, 199.1 kPa
  mass density: 988.5 ± 1.2 kg/m3
303.15 K, 199.3 kPa
  mass density: 988.4 ± 1.2 kg/m3
303.15 K, 199.6 kPa
  mass density: 988.5 ± 1.2 kg/m3 and 988.6 ± 1.2 kg/m3
303.15 K, 200.9 kPa
  mass density: 988.4 ± 1.2 kg/m3
303.15 K, 202.8 kPa
  mass density: 988.4 ± 1.2 kg/m3
303.15 K, 203.1 kPa
  mass density: 988.5 ± 1.2 kg/m3
303.15 K, 203.3 kPa
  mass density: 988.5 ± 1.2 kg/m3
303.15 K, 203.5 kPa
  mass density: 988.4 ± 1.2 kg/m3
303.15 K, 203.8 kPa
  mass density: 988.4 ± 1.2 kg/m3
303.15 K, 204 kPa
  mass density: 988.5 ± 1.2 kg/m3
303.15 K, 204.5 kPa
  mass density: 988.4 ± 1.2 kg/m3
303.15 K, 204.7 kPa
  mass density: 988.4 ± 1.2 kg/m3
303.15 K, 204.9 kPa
  mass density: 988.5 ± 1.2 kg/m3 and 988.6 ± 1.2 kg/m3
303.15 K, 205 kPa
  mass density: 988.5 ± 1.2 kg/m3
303.15 K, 205.4 kPa
  mass density: 988.5 ± 1.2 kg/m3 and 988.4 ± 1.2 kg/m3
303.15 K, 205.7 kPa
  mass density: 988.5 ± 1.2 kg/m3 and 988.6 ± 1.2 kg/m3
303.15 K, 206.1 kPa
  mass density: 988.5 ± 1.2 kg/m3
303.15 K, 206.2 kPa
  mass density: 988.5 ± 1.2 kg/m3 and 988.4 ± 1.2 kg/m3
303.15 K, 206.4 kPa
  mass density: 988.5 ± 1.2 kg/m3
303.15 K, 206.8 kPa
  mass density: 988.4 ± 1.2 kg/m3
303.15 K, 206.9 kPa
  mass density: 988.3 ± 1.2 kg/m3
303.15 K, 208.3 kPa
  mass density: 988.4 ± 1.2 kg/m3
303.15 K, 208.7 kPa
  mass density: 988.4 ± 1.2 kg/m3
303.15 K, 210.1 kPa
  mass density: 988.5 ± 1.2 kg/m3 and 988.4 ± 1.2 kg/m3
303.15 K, 210.6 kPa
  mass density: 988.5 ± 1.2 kg/m3
303.15 K, 210.9 kPa
  mass density: 988.3 ± 1.2 kg/m3 and 988.4 ± 1.2 kg/m3
303.15 K, 211.1 kPa
  mass density: 988.4 ± 1.2 kg/m3 and 988.5 ± 1.2 kg/m3 and 988.3 ± 1.2 kg/m3
303.15 K, 211.8 kPa
  mass density: 988.5 ± 1.2 kg/m3 and 988.6 ± 1.2 kg/m3
303.15 K, 212 kPa
  mass density: 988.5 ± 1.2 kg/m3
303.15 K, 212.3 kPa
  mass density: 988.4 ± 1.2 kg/m3
303.15 K, 213.2 kPa
  mass density: 988.4 ± 1.2 kg/m3
303.15 K, 213.6 kPa
  mass density: 988.5 ± 1.2 kg/m3
303.15 K, 213.7 kPa
  mass density: 988.6 ± 1.2 kg/m3
303.15 K, 214.1 kPa
  mass density: 988.5 ± 1.2 kg/m3
303.15 K, 214.2 kPa
  mass density: 988.5 ± 1.2 kg/m3
303.15 K, 214.4 kPa
  mass density: 988.5 ± 1.2 kg/m3
303.15 K, 214.6 kPa
  mass density: 988.6 ± 1.2 kg/m3
303.15 K, 214.8 kPa
  mass density: 988.5 ± 1.2 kg/m3
303.15 K, 215.1 kPa
  mass density: 988.4 ± 1.2 kg/m3
303.15 K, 215.5 kPa
  mass density: 988.5 ± 1.2 kg/m3
303.15 K, 215.6 kPa
  mass density: 988.4 ± 1.2 kg/m3 and 988.5 ± 1.2 kg/m3
303.15 K, 216 kPa
  mass density: 988.5 ± 1.2 kg/m3
303.15 K, 216.2 kPa
  mass density: 988.5 ± 1.2 kg/m3
303.15 K, 216.5 kPa
  mass density: 988.5 ± 1.2 kg/m3
303.15 K, 216.7 kPa
  mass density: 988.6 ± 1.2 kg/m3
303.15 K, 216.9 kPa
  mass density: 988.5 ± 1.2 kg/m3
303.15 K, 217 kPa
  mass density: 988.5 ± 1.2 kg/m3
303.15 K, 217.2 kPa
  mass density: 988.4 ± 1.2 kg/m3
303.15 K, 217.7 kPa
  mass density: 988.4 ± 1.2 kg/m3
303.15 K, 218.1 kPa
  mass density: 988.5 ± 1.2 kg/m3
303.15 K, 218.2 kPa
  mass density: 988.5 ± 1.2 kg/m3
303.15 K, 218.6 kPa
  mass density: 988.5 ± 1.2 kg/m3
303.15 K, 219.1 kPa
  mass density: 988.5 ± 1.2 kg/m3
303.15 K, 219.4 kPa
  mass density: 988.6 ± 1.2 kg/m3
303.15 K, 219.6 kPa
  mass density: 988.5 ± 1.2 kg/m3
303.15 K, 219.8 kPa
  mass density: 988.4 ± 1.2 kg/m3
303.15 K, 220 kPa
  mass density: 988.4 ± 1.2 kg/m3
303.15 K, 220.2 kPa
  mass density: 988.4 ± 1.2 kg/m3
303.15 K, 220.3 kPa
  mass density: 988.4 ± 1.2 kg/m3
303.15 K, 224.1 kPa
  mass density: 988.4 ± 1.2 kg/m3
303.15 K, 224.8 kPa
  mass density: 988.5 ± 1.2 kg/m3
303.15 K, 225.2 kPa
  mass density: 988.4 ± 1.2 kg/m3
303.15 K, 225.4 kPa
  mass density: 988.5 ± 1.2 kg/m3
303.15 K, 228.3 kPa
  mass density: 988.6 ± 1.2 kg/m3
